Holding throughout (assay type): cell-based
In assay [1] the test system is FRDA fibroblasts. In words: FRDA fibroblast assay for protection from oxidative stress (BSO). The settings on record: Homo sapiens, preincubation 24 h before 1 mM BSO, read-out: EC50, reduced cell death in FRDA fibroblasts compared to untreated FRDA fibroblasts. The source says: A cellular assay using FRDA-patient derived fibroblasts (as described by Jauslin, M L et al, Human Molecular Genetics 11; 3055-3063 (2002)); was used to determine the protective effects of the test compounds by analyzing survival of dermal fibroblasts taken from FRDA patients and unaffected normal donors under conditions of partial GSH depletion. Exposure of FRDA fibroblasts to BSO (L-buthionine (S,R)-sulfoximine) under conditions of restricted selenium causes depletion of cellular glutathione (GSH) and severe plasma membrane damage leading to cell death. Preincubation with the test compounds before the addition of BSO was used to determine if they could protect FRDA cells from BSO-mediated cell death.
Primary fibroblasts were derived from donors with a molecular diagnosis of FRDA and control donors with no mitochondria) disease. Lines F2, C2 and C3 were obtained from Coriell Cell Repositories (Camden, N.J., USA; catalog nos GM04078, GM 08402 and GM08399, respectively). All cell types were diagnosed at the molecular level for intronic GAA triplet repeat length in the frataxin gene using a PCR-based method, according to methods known in the art. […] The cells were seeded in 96-well plates at a density of 4000 cells per 100 pI in growth medium consisting of 25% (v/v) M199 EBS and 64% (v/v) MEM EBS without phenol red (Bioconcept, Allschwil, Switzerland) supplemented with 10% (v/v) fetal calf serum (PAA Laboratories, Linz, Austria), 100 U/ml penicillin, 100 μg/ml streptomycin (PAA Laboratories, Linz, Austria), 10 μg/ml insulin (Sigma, Buchs, Switzerland), 10 ng/ml EGF (Sigma, Buchs, Switzerland), 10 ng/ml bFGF (PreproTech, Rocky Hill, N.J., USA) and 2 mM glutamine (Sigma, Buchs, Switzerland). The cells were incubated in the presence of the various test compounds for 24 h before addition of 1 mM BSO (L-buthionine (S,R)-sulfoximine).
Cell viability was measured after the first signs of toxicity appeared in the BSO-treated controls (typically after 16-48 h). The cells were stained for 60 min at room temperature in PBS with 1.2 μm calceinAM and 4 pm ethidium homodimer (Live/Dead assay, Molecular Probes, Eugene, Oreg., USA). Fluorescence intensity was measured with a Gemini Spectramax XS spectrofluorimeter (Molecular Devices, Sunnyvale, Calif., USA) using excitation and emission wavelengths of 485 and 525 nm, respectively.

For assay [2], the system named is dopaminergic neuronal cell line. Nature of the assay: High glutamate-induced oxidative stress assay (HGOS). The settings on record: Mus musculus; 30 mM glutamate, 16 hrs; read-out: EC50, protection against HGOS cell injury and cell death. The source says: Protection against redox stress can be evaluated in cell culture using high glutamate induced oxidative stress (HGOS) in mouse dopaminergic cell lines. The cytotoxic effect of glutamate is not due to excitotoxicity, as this cell line is devoid of inotropic glutamate receptors. Rather, the glutamate-induced toxicity of dopaminergic cells is associated with an inhibition of cystine transport which subsequently leads to depletion of intracellular glutathione (GSH) levels (Murphy T. H., et al. Neuron 2, 1547-1558, 1989), activation of neuronal 12-lipoxygenase (Li, Y. et al., Neuron 19, 453-463, 1997), increased ROS production (Tan S. et al., J. Cell Biol. 141, 1423-1432, 1998) and elevated intracellular Cat^2+ (Li, Y. et al., see supra). Some molecules were measured for their ability to protect cells against glutamate-induced stress and the assay is detailed in Examples.
This procedure was used to induce high glutamate-induced oxidative stress (HGOS) in a dopaminergic neuronal cell line. Using this assay the potency and efficacy of test articles against HGOS neuronal cell injury and cell death was established in a high throughput manner.
• Dopaminergic neuronal cell lines • DMEM-No Glucose (Life Technologies Cat #11966-025) • L-glutamine (Life Technologies Cat #25030-081) • L-glutamic acid, monosodium salt (Sigma Cat #G5889) • D-glucose (Sigma Cat #G-6151) • 10×HBSS buffer (pH 7.4) (950 ml Pyrogen-free water, 2.44 g/L MgCl2.6H20, 3.73 g/L KCl, 59.58 g/L Hepes, 58.44 g/L NaCl, 1.36 g/L KH2PO4, 1.91 g/L CaCl2.2H2O and pH to […] with HCl) • Cell Tracker Green fluorescent dye (Molecular Probes, Cat #2925). Prepare a 5NM solution in pre-warmed HBSS just prior to use. • Sterile 96-well plates precoated with poly-D-lysine (Corning Catalog #3665) • 96-well deep well mother plate, DyNA Block 1000 (VWR Catalog #40002-008) Neuronal Cells
The cells were seeded into 96-well plates at a density of 2000 per well and left to grow for 72 hours in a 33° C. incubator with 5% CO2 in air atmosphere. The passage number of the cells for each assay experiment were no later than p11 in order to minimize experimental variation.
All compounds were dissolved in DMEM-No Glu containing 1 mM glucose, 30 mM glutamate and 1× Pen/Strep. DMEM-No Glu with 1 mM glucose and 1× P/S was used as the negative control, DMEM-No Glucose with 1 mM glucose, […] glutamate was used as a positive control and 100 NM Glutathione was added to the positive control as a standard. All of the procedures for this involving the making and dilution of compounds were performed using aseptic conditions and with minimal light.
The plates were removed from the incubator and examined under the microscope for morphological appearance and density. Using an aseptic technique and an 8-channel aspirator the media was carefully removed from the cells and replaced with 200 μI of 1×HBSS. This was done as quickly as possible to prevent the cells drying out. The plates were then placed in the humidified 37° C. incubators of the Biomek 2000 Side Loader. Four plates were washed at a time so as to minimize the time that the cells were sitting in 1×HBSS prior to addition of the compound test solution. Experimental Setup
The Beckman Biomek workstations were used to load the compounds and controls from the mother plates onto the cell plates that were prewashed with HBSS under sterile conditions. The plates were incubated in the upper HTS incubator at 37° C. in 5% CO2 for exactly 16 hrs. The following day, using the Beckman Biomek workstations, the plates were removed from the incubator. Using Cell Tracker Addition, the compounds were removed from the plates, washed once with […] of pre-warmed 1×HBSS and then 100 μL of 5 μM Cell Tracker Green was added to each well. The plates were incubated at 37° C. for 30 min to allow the dye to enter the cell and be cleaved by the esterases. […]

In assay [3] the test system is IL-1β release from a mouse microglial cell line. Nature of the assay: Interleukin-1β microglial cell assay (LPS / IFN gamma). The settings on record: LPS (10 μg/ml) and IFN gamma (10 ng/ml), 24 hours, read-out: EC50, inhibition of IL-1 beta induction. As for the experimental part: This assay measures the release of IL-1β from a mouse microglial cell line following an inflammatory challenge with LPS and interferon-gamma. The ability of test articles to inhibit microglial cell activation and IL-1β release is determined by co-incubation of the test article with the inflammatory challenge.
Mouse microglial cells were seeded in poly-D-lysine coated 96-well plates at a density of 10,000 cells/well and allowed to attach for 24 hours. Cells were stimulated by addition of LPS (10 μg/ml) and IFN gamma (10 ng/ml) in the presence or absence of test article. The cells were then incubated for 24 hours at 37° C., after which time the media was removed and used for cytokine determination as described below.
Viability of mouse microglial cells after exposure to the test article was determined using a fluorescent viability dye, Cell Tracker Green. Cell Tracker Green was used at a working concentration of 5 μM in 1×HBSS. Cells were washed once with HBSS (200 μl/well) and 100 μl Cell Tracker Green was added to each well. Cells were then incubated at 37° C. for 30 minutes, after which time the Cell Tracker was removed and the cells were washed once with HBSS (200 μl/well). 100 pl fresh HBSS was added to each well and the plate was read on a Fluoroskan plate reader using an excitation wavelength of 485 nm and an emission wavelength of 538 nm.
1. […]
• The Costar EIA Hi-binding plate was coated with capture antibody at 4 μg/ml. […] Each well was filled to the top, dispensed, and any remaining buffer was removed by inverting the plate and gently blotting against clean paper towels. • Non-specific binding sites were blocked by adding 300 μl of Blocking Buffer to each well, and after sealing incubating for at least 1 hour at room temperature. • After washing the plate was now ready for the samples. […] 100 μl of this Substrate Solution mixture was added to each well and the plate was incubated in the dark for 20 minutes at room temperature. • 50 μl of Stop Solution was added to each well, mixing was ensured by gently tapping. • Each plate was read with the Spectramax once at 450 nm. […]

For `Cc1c(C)c2c(c(CSCC(C)C(=O)N3CCCC3C(=O)O)c1O)CCC(C)(CCCC(C)CCCC(C)CCCC(C)C)O2` (centres unmarked) [1-{3-[6-Hydroxy-2,7,8-trimethyl-2-(4,8,12-trimethyl-tridecyl)-chroman-5-ylmethylsulfanyl]-2-methyl-propionyl}-pyrrolidine-2-carboxylic acid], the values for the concentration giving a half-maximal response (EC50) in assay [1] and in assay [2] were 0.01 to 6 µM and under 5 µM, respectively.

Take `Cc1cc(C)nc(SCc2c(O)c(C)c(C)c3c2CCC(C)(C)O3)n1` [5-(4,6-Dimethyl-pyrimidin-2-ylsulfanylmethyl)-2,2,7,8-tetramethyl-chroman-6-ol]: the concentration for a half-maximal effect (EC50) in assay [3] is at most 20 µM; in assay [2], under 5 µM.

On to `CCCCCCSCc1c(O)c(C)c(C)c2c1CCC(C)(C)O2` [5-Hexylsulfanylmethyl-2,2,7,8-tetramethyl-chroman-6-ol], for which the 50% effective concentration (EC50) was 0.01 to 6 µM in assay [1] and under 5 µM in assay [2].

As for `Cc1c(C)c2c(c(CSC3CCCC3)c1O)CCC(C)(C)O2` [5-Cyclopentylsulfanylmethyl-2,2,7,8-tetramethyl-chroman-6-ol], the EC50 in assay [1] was 0.01 to 6 µM; in assay [2], under 5 µM.

By EC50 is commonly meant the concentration at which the effect is half-maximal.
